We go through one molecule from article PMC6138237, “Machine intelligence decrypts β-lapachone as an allosteric 5-lipoxygenase inhibitor” (Chemical Science, 2018).

Experiment [1] deals with T1, EP3 (Homo sapiens, UniProt P43115).
T1 sequence (P43115 1-390): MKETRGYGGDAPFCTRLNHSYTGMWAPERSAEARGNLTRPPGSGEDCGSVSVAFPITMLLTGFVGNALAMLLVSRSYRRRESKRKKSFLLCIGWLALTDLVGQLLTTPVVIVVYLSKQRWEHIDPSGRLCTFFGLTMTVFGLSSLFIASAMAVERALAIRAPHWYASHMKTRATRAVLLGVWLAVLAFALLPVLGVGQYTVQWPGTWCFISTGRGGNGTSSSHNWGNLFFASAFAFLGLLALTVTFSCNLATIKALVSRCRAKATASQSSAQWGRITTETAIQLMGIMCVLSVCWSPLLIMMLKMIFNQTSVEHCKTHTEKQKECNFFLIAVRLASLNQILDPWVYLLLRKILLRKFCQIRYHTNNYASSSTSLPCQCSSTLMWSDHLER
The experiment can be described thus: EP3 functional antagonist assay, Cerep (sulprostone 0.1 nM, impedance).

The target in experiment [2] is T2, IKKα (Homo sapiens, UniProt O15111).
T2 sequence (O15111 1-745): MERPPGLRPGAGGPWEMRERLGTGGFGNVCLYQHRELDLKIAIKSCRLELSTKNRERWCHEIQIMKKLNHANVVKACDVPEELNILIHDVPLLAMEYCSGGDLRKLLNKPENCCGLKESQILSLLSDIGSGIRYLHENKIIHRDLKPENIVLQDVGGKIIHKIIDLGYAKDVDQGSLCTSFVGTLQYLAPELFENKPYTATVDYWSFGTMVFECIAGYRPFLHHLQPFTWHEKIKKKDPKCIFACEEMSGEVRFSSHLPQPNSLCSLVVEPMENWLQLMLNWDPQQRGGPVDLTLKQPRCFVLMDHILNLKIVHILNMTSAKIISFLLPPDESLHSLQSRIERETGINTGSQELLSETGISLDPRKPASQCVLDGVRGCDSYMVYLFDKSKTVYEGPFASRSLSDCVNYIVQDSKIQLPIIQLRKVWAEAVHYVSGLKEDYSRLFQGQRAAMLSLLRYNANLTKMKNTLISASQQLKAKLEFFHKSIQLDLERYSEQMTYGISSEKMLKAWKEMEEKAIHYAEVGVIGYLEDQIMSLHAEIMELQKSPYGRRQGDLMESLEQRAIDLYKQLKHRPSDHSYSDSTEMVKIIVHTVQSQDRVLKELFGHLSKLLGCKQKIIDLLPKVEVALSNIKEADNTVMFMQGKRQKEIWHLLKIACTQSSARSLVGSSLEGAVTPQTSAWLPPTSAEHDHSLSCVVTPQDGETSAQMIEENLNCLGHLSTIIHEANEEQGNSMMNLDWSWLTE
Description: ExpresS Diversity Kinase Profile, Cerep (LANCE): IKKα. Format: biochemical. (In general: TR-FRET usually uses a lanthanide donor and a delayed reading to cut background.)

Experiment [3] addresses TRKA (Homo sapiens, UniProt P04629). The experiment can be described thus: ExpresS Diversity Kinase Profile, Cerep (LANCE): TRKA. Type of experiment: biochemical.
Experiment [4] has as its target T3, EP1 (Homo sapiens, UniProt P34995).
T3 sequence (P34995 1-402): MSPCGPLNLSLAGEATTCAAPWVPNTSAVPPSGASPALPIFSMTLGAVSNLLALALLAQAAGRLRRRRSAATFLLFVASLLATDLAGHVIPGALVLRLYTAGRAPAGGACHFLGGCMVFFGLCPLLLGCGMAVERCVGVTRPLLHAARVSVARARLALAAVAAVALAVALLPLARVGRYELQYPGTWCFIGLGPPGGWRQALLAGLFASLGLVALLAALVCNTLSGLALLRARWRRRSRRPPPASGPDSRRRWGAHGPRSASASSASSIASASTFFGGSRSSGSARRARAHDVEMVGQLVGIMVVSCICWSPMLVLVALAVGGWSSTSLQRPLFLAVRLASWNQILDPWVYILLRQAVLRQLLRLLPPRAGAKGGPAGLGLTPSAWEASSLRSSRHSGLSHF
The experiment can be described thus: EP1 functional agonist assay, Cerep (intracellular Ca2+).

The target of experiment [5] is T4, EphA3 (Homo sapiens, UniProt P29320).
T4 sequence (P29320 21-983): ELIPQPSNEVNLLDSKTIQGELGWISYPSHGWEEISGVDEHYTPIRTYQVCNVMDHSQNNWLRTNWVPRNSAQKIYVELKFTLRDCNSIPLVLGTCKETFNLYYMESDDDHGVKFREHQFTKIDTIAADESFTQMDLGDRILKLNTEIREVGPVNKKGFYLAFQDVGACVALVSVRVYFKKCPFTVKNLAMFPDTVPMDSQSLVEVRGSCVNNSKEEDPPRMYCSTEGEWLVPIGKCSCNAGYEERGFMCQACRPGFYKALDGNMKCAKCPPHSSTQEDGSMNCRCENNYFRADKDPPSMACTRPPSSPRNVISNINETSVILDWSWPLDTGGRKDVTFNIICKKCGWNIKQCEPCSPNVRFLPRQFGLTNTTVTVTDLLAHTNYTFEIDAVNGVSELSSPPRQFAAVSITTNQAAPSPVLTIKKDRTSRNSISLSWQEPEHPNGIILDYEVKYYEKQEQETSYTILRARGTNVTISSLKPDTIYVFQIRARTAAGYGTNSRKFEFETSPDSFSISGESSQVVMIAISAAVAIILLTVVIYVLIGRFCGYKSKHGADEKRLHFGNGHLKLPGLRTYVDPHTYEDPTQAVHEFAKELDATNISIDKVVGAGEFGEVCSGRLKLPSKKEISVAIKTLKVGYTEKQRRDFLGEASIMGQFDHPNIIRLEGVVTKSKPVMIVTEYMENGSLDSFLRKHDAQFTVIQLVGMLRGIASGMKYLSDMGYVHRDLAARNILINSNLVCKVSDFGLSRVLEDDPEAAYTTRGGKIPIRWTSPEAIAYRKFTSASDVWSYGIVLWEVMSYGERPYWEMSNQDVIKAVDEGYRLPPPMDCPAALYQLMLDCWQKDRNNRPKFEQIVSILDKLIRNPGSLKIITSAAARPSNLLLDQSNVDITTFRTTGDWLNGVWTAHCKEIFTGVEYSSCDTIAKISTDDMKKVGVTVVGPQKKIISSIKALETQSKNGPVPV
Description: ExpresS Diversity Kinase Profile, Cerep (LANCE): EphA3. Type of experiment: biochemical.

Experiment [6] deals with Abl (Homo sapiens, UniProt P00519). The experiment can be described thus: ExpresS Diversity Kinase Profile, Cerep (LANCE): Abl. Format: biochemical.
Setting [7] is: Flag: Interference, read-out: % Inhibition of control values, 1st measurement.
The mark [8] stands for this setting: Flag: Interference, read-out: % Inhibition of control values, 2nd measurement.
[9] abbreviates: n = 2, Flag: Interference, read-out: % Inhibition of control values, Mean.
The mark [10] stands for this setting: n = 2, read-out: % Inhibition of control values, Mean.
[11] abbreviates: read-out: % Inhibition of control values, 1st measurement.
Where [12] appears, read: read-out: % Inhibition of control values, 2nd measurement.

Read-outs that look alike come from different tables or passages of the source.

Chain of Abl (P00519 whole entry): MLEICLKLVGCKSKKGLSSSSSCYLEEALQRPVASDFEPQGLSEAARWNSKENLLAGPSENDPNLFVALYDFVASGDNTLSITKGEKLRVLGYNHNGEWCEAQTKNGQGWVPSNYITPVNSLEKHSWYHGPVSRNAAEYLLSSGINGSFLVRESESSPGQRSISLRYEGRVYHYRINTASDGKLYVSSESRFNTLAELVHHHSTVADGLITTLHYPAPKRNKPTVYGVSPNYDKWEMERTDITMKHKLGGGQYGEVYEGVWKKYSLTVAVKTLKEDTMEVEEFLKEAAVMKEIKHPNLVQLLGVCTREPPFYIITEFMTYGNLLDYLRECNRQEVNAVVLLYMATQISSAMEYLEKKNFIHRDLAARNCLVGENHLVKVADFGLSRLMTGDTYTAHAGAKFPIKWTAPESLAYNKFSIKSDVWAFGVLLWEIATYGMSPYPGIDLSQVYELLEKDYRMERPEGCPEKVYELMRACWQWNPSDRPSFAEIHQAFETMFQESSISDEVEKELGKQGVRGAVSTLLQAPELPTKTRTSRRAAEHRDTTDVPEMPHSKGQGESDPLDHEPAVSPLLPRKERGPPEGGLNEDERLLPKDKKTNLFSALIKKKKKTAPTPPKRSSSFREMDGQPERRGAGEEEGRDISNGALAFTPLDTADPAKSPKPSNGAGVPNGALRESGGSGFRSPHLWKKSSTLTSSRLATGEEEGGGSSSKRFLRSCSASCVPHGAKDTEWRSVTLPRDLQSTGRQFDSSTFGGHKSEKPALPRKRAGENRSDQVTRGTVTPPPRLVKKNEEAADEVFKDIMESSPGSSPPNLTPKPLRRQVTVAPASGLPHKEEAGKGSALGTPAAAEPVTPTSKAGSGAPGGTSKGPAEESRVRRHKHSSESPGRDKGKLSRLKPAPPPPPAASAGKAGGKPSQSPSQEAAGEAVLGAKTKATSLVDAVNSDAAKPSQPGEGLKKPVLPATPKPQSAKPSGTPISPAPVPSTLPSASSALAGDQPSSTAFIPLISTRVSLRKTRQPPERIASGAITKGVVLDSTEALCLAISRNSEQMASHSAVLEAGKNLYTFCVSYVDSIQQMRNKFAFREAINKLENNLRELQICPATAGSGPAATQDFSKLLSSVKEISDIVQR
Chain of TRKA (P04629 33-796): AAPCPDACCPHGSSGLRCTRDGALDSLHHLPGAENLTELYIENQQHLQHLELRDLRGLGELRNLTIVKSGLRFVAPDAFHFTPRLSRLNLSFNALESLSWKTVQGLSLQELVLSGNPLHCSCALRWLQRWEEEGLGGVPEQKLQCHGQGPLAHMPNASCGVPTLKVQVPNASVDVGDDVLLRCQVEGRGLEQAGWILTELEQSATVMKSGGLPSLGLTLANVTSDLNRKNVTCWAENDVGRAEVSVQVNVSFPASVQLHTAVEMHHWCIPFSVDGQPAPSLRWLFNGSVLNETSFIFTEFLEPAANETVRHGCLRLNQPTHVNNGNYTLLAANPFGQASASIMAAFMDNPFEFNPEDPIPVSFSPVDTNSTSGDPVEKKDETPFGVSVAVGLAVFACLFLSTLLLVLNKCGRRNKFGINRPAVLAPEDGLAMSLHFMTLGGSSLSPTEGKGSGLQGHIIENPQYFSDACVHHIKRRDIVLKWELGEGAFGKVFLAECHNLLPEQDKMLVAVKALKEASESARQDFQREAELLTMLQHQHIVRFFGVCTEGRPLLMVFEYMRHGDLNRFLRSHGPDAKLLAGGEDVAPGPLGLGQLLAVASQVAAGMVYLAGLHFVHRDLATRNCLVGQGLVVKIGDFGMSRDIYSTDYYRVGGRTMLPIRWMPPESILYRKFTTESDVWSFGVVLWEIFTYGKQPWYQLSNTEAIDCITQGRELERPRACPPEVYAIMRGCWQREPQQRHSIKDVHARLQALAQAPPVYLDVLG

Usually Kb stands for the equilibrium dissociation constant of an antagonist, usually derived from a functional assay. The low end stands for higher antagonist affinity, the high end for lower antagonist affinity. Usually IC50 stands for the midpoint of a concentration-inhibition curve. As usually defined, the inhibition is the share of the control response that was lost under treatment. Regarding `CC1(C)CCC2=C(O1)c1ccccc1C(=O)C2=O` [β-Lapachone], the Kb in experiment [1] was determined as 22 µM. Further, in experiment [1] (EP3), the “ligand efficiency (LE)” value came to 0.36. Moreover, the IC50 is 20 µM in experiment [1] (Experimental –log(IC50 or KD), EP3) and 63 µM in experiment [1] (IC50, EP3 concentration–inhibition curve, n = 2). Also, the inhibition at 150 µM in experiment [2] (setting [7]) was 59.5%; in experiment [2] (setting [8]) it was 59.4%; in experiment [2] (setting [9]), 59.5%; in experiment [3] (setting [7]), 38.1%; in experiment [3] (setting [8]) it was 45.7%; in experiment [3] (setting [9]), 41.9%. Besides, the inhibition at 150 µM was found to be 65.1% in experiment [5] (setting [10]); 66.8% in experiment [5] (setting [11]); 63.3% in experiment [5] (setting [12]); 42.4% in experiment [6] (setting [10]); 42.9% in experiment [6] (setting [11]); 41.8% in experiment [6] (setting [12]). Moreover, the remaining activity at 150 µM in experiment [4] (read-out: % of control values, 1st measurement) is -11.9%; in experiment [4] (read-out: % of control values, 2nd measurement), -11.9%; in experiment [4] (read-out: % of control values, Mean), -11.9%.
